From patent publication US8410161B2, “Thioxanthone ring system derivatives” (National Defense Medical Center, priority 2010, dated 2013)

Assays:
[1] = test system: A control cell lines; assay: MTT assay, A control cell lines (lung cancer cell); type: cell-based
From the text: Please refer to Table 1 and FIGS. 4A-4C. According to a MTT assay (Table 1), various cell viabilities of the A control cell lines can be obtained and illustrated in FIG. 4A while the compounds No. 2˜30 are used to treat A control cell lines, wherein A control cell lines are lung cancer cell.

[2] = test system: A3 cell lines; assay: MTT assay, A3 cell lines (lung cancer stem cell); type: cell-based
From the text: Please to FIG. 4B, various cell viabilities of the A3 cell lines can be obtained through the MTT assay and illustrated in FIG. 4B while the compounds No. 1˜30 are used to treat A3 cell lines, wherein A3 cell lines are lung cancer stem cell.

[3] = MTT assay, HEL299 fibroblast; type: cell-based; details: human
From the text: Please refer to FIG. 4C, various cell viabilities of the HEL299 cell lines can be obtained through the MTT assay while the compounds No. 1˜30 are used to treat HEL299 cell lines, wherein HEL299 cell lines are fibroblast.

[4] = test system: HL-60(TB); assay: NCI in vitro DTP human cell line screen, HL-60(TB); type: cell-based; details: Leukemia, 1.00E−5 Molar
Procedure: (§1) Then, a cell toxicity assay of the cancer lines made by National Cancer Institute will be discussed as follows. The cell toxicity assay is performed by choosing ten compounds (existing certification numbers) from the 59 compounds disclosed in the present invention first.

[5] = test system: K562; assay: NCI in vitro DTP human cell line screen, K562; type: cell-based; details: Leukemia, 1.00E−5 Molar
Procedure: as §1

[6] = test system: MOLT-4; assay: NCI in vitro DTP human cell line screen, MOLT-4; type: cell-based; details: Leukemia, 1.00E−5 Molar
Procedure: as §1

[7] = test system: RPMI-8226; assay: NCI in vitro DTP human cell line screen, RPMI-8226; type: cell-based; details: Leukemia, 1.00E−5 Molar
Procedure: as §1

[8] = test system: SR; assay: NCI in vitro DTP human cell line screen, SR; type: cell-based; details: Leukemia, 1.00E−5 Molar
Procedure: as §1

[9] = test system: EKVX; assay: NCI in vitro DTP human cell line screen, EKVX; type: cell-based; details: Non-Small Cell Lung Cancer, 1.00E−5 Molar
Procedure: as §1

[10] = test system: NCI-H226; assay: NCI in vitro DTP human cell line screen, NCI-H226; type: cell-based; details: Non-Small Cell Lung Cancer, 1.00E−5 Molar
Procedure: as §1

[11] = test system: NCI-H23; assay: NCI in vitro DTP human cell line screen, NCI-H23; type: cell-based; details: Non-Small Cell Lung Cancer, 1.00E−5 Molar
Procedure: as §1

[12] = test system: NCI-H322M; assay: NCI in vitro DTP human cell line screen, NCI-H322M; type: cell-based; details: Non-Small Cell Lung Cancer, 1.00E−5 Molar
Procedure: as §1

[13] = test system: NCI-H460; assay: NCI in vitro DTP human cell line screen, NCI-H460; type: cell-based; details: Non-Small Cell Lung Cancer, 1.00E−5 Molar
Procedure: as §1

[14] = test system: NCI-H522; assay: NCI in vitro DTP human cell line screen, NCI-H522; type: cell-based; details: Non-Small Cell Lung Cancer, 1.00E−5 Molar
Procedure: as §1

[15] = test system: COLO 205; assay: NCI in vitro DTP human cell line screen, COLO 205; type: cell-based; details: Colon Cancer, 1.00E−5 Molar
Procedure: as §1

[16] = test system: HCC-2998; assay: NCI in vitro DTP human cell line screen, HCC-2998; type: cell-based; details: Colon Cancer, 1.00E−5 Molar
Procedure: as §1

[17] = test system: HCT-116; assay: NCI in vitro DTP human cell line screen, HCT-116; type: cell-based; details: Colon Cancer, 1.00E−5 Molar
Procedure: as §1

[18] = test system: HCT-15; assay: NCI in vitro DTP human cell line screen, HCT-15; type: cell-based; details: Colon Cancer, 1.00E−5 Molar
Procedure: as §1

[19] = test system: HT29; assay: NCI in vitro DTP human cell line screen, HT29; type: cell-based; details: Colon Cancer, 1.00E−5 Molar
Procedure: as §1

[20] = test system: KM12; assay: NCI in vitro DTP human cell line screen, KM12; type: cell-based; details: Colon Cancer, 1.00E−5 Molar
Procedure: as §1

[21] = test system: SW-620; assay: NCI in vitro DTP human cell line screen, SW-620; type: cell-based; details: Colon Cancer, 1.00E−5 Molar
Procedure: as §1

[22] = test system: SF-268; assay: NCI in vitro DTP human cell line screen, SF-268; type: cell-based; details: CNS Cancer, 1.00E−5 Molar
Procedure: as §1

[23] = test system: SF-295; assay: NCI in vitro DTP human cell line screen, SF-295; type: cell-based; details: CNS Cancer, 1.00E−5 Molar
Procedure: as §1

[24] = test system: SF-539; assay: NCI in vitro DTP human cell line screen, SF-539; type: cell-based; details: CNS Cancer, 1.00E−5 Molar
Procedure: as §1

[25] = test system: SNB-75; assay: NCI in vitro DTP human cell line screen, SNB-75; type: cell-based; details: CNS Cancer, 1.00E−5 Molar
Procedure: as §1

[26] = test system: U251; assay: NCI in vitro DTP human cell line screen, U251; type: cell-based; details: CNS Cancer, 1.00E−5 Molar
Procedure: as §1

[27] = test system: LOX IMVI; assay: NCI in vitro DTP human cell line screen, LOX IMVI; type: cell-based; details: Melanoma, 1.00E−5 Molar
Procedure: as §1

[28] = test system: MALME-3M; assay: NCI in vitro DTP human cell line screen, MALME-3M; type: cell-based; details: Melanoma, 1.00E−5 Molar
Procedure: as §1

[29] = test system: M14; assay: NCI in vitro DTP human cell line screen, M14; type: cell-based; details: Melanoma, 1.00E−5 Molar
Procedure: as §1

[30] = test system: MDA-MB-435; assay: NCI in vitro DTP human cell line screen, MDA-MB-435; type: cell-based; details: Melanoma, 1.00E−5 Molar
Procedure: as §1

[31] = test system: SK-MEL-2; assay: NCI in vitro DTP human cell line screen, SK-MEL-2; type: cell-based; details: Melanoma, 1.00E−5 Molar
Procedure: as §1

[32] = test system: SK-MEL-28; assay: NCI in vitro DTP human cell line screen, SK-MEL-28; type: cell-based; details: Melanoma, 1.00E−5 Molar
Procedure: as §1

[33] = test system: SK-MEL-5; assay: NCI in vitro DTP human cell line screen, SK-MEL-5; type: cell-based; details: Melanoma, 1.00E−5 Molar
Procedure: as §1

[34] = test system: UACC-257; assay: NCI in vitro DTP human cell line screen, UACC-257; type: cell-based; details: Melanoma, 1.00E−5 Molar
Procedure: as §1

[35] = test system: IGROV1; assay: NCI in vitro DTP human cell line screen, IGROV1; type: cell-based; details: Ovarian Cancer, 1.00E−5 Molar
Procedure: as §1

[36] = test system: OVCAR-3; assay: NCI in vitro DTP human cell line screen, OVCAR-3; type: cell-based; details: Ovarian Cancer, 1.00E−5 Molar
Procedure: as §1

[37] = test system: OVCAR-4; assay: NCI in vitro DTP human cell line screen, OVCAR-4; type: cell-based; details: Ovarian Cancer, 1.00E−5 Molar
Procedure: as §1

[38] = test system: OVCAR-5; assay: NCI in vitro DTP human cell line screen, OVCAR-5; type: cell-based; details: Ovarian Cancer, 1.00E−5 Molar
Procedure: as §1

[39] = test system: OVCAR-8; assay: NCI in vitro DTP human cell line screen, OVCAR-8; type: cell-based; details: Ovarian Cancer, 1.00E−5 Molar
Procedure: as §1

[40] = test system: NCI/ADR-RES; assay: NCI in vitro DTP human cell line screen, NCI/ADR-RES; type: cell-based; details: Ovarian Cancer, 1.00E−5 Molar
Procedure: as §1

[41] = test system: SK-OV-3; assay: NCI in vitro DTP human cell line screen, SK-OV-3; type: cell-based; details: Ovarian Cancer, 1.00E−5 Molar
Procedure: as §1

[42] = test system: 786-0; assay: NCI in vitro DTP human cell line screen, 786-0; type: cell-based; details: Renal Cancer, 1.00E−5 Molar
Procedure: as §1

[43] = test system: ACHN; assay: NCI in vitro DTP human cell line screen, ACHN; type: cell-based; details: Renal Cancer, 1.00E−5 Molar
Procedure: as §1

[44] = test system: CAKI-1; assay: NCI in vitro DTP human cell line screen, CAKI-1; type: cell-based; details: Renal Cancer, 1.00E−5 Molar
Procedure: as §1

[45] = test system: RXF 393; assay: NCI in vitro DTP human cell line screen, RXF 393; type: cell-based; details: Renal Cancer, 1.00E−5 Molar
Procedure: as §1

[46] = test system: TK-10; assay: NCI in vitro DTP human cell line screen, TK-10; type: cell-based; details: Renal Cancer, 1.00E−5 Molar
Procedure: as §1

[47] = test system: UO-31; assay: NCI in vitro DTP human cell line screen, UO-31; type: cell-based; details: Renal Cancer, 1.00E−5 Molar
Procedure: as §1

[48] = test system: PC-3; assay: NCI in vitro DTP human cell line screen, PC-3; type: cell-based; details: Prostate Cancer, 1.00E−5 Molar
Procedure: as §1

[49] = test system: DU145; assay: NCI in vitro DTP human cell line screen, DU145; type: cell-based; details: Prostate Cancer, 1.00E−5 Molar
Procedure: as §1

[50] = test system: MCF7; assay: NCI in vitro DTP human cell line screen, MCF7; type: cell-based; details: Breast Cancer, 1.00E−5 Molar
Procedure: as §1

[51] = test system: HS 578-T; assay: NCI in vitro DTP human cell line screen, HS 578-T; type: cell-based; details: Breast Cancer, 1.00E−5 Molar
Procedure: as §1

[52] = test system: BT-549; assay: NCI in vitro DTP human cell line screen, BT-549; type: cell-based; details: Breast Cancer, 1.00E−5 Molar
Procedure: as §1

[53] = test system: T-47D; assay: NCI in vitro DTP human cell line screen, T-47D; type: cell-based; details: Breast Cancer, 1.00E−5 Molar
Procedure: as §1

[54] = test system: MDA-MB-468; assay: NCI in vitro DTP human cell line screen, MDA-MB-468; type: cell-based; details: Breast Cancer, 1.00E−5 Molar
Procedure: as §1

[55] = test system: 60 cancer lines; assay: NCI cell toxicity assay of 60 cancer lines, whole panel summary; type: cell-based, human; details: mean over all cell lines; 1.00E−5 Molar
Procedure: as §1

Structure (SMILES): COc1cccc(Sc2ccc3c(=O)c4ccccc4sc3c2Cl)c1 [No. 16, 4-Chloro-3-(3-methoxylphenylthio)-9H-thioxanthen-9-one]
- cell viabilities of A control cell lines (MTT assay) [1]: 91.8 ± 3.07%
- cell viabilities of A3 cell lines (MTT assay) [2]: 90.0 ± 1.24%
- viability [3]: 90.6 ± 11.5%
- Growth Percent [4]: 115.43%
- Growth Percent [5]: 97.79%
- Growth Percent [6]: 111.47%
- Growth Percent [7]: 99.57%
- Growth Percent [8]: 99.21%
- Growth Percent [9]: 96.56%
- Growth Percent [10]: 95.11%
- Growth Percent [11]: 92.69%
- Growth Percent [12]: 118.28%
- Growth Percent [13]: 108.81%
- Growth Percent [14]: 86.09%
- Growth Percent [15]: 113.53%
- Growth Percent [16]: 103.45%
- Growth Percent [17]: 101.88%
- Growth Percent [18]: 94.87%
- Growth Percent [19]: 91.02%
- Growth Percent [20]: 114.13%
- Growth Percent [21]: 106.14%
- Growth Percent [22]: 104.10%
- Growth Percent [23]: 108.18%
- Growth Percent [24]: 100.06%
- Growth Percent [25]: 86.86%
- Growth Percent [26]: 93.76%
- Growth Percent [27]: 93.53%
- Growth Percent [28]: 94.91%
- Growth Percent [29]: 111.90%
- Growth Percent [30]: 100.32%
- Growth Percent [31]: 97.07%
- Growth Percent [32]: 109.16%
- Growth Percent [33]: 96.73%
- Growth Percent [34]: 89.21%
- Growth Percent [35]: 108.37%
- Growth Percent [36]: 113.99%
- Growth Percent [37]: 99.88%
- Growth Percent [38]: 94.14%
- Growth Percent [39]: 94.29%
- Growth Percent [40]: 102.83%
- Growth Percent [41]: 104.91%
- Growth Percent [42]: 107.97%
- Growth Percent [43]: 103.08%
- Growth Percent [44]: 101.23%
- Growth Percent [45]: 112.67%
- Growth Percent [46]: 95.23%
- Growth Percent [47]: 98.31%
- Growth Percent [48]: 98.58%
- Growth Percent [49]: 115.18%
- Growth Percent [50]: 88.94%
- Growth Percent [51]: 103.73%
- Growth Percent [52]: 112.48%
- Growth Percent [53]: 92.09%
- Growth Percent [54]: 104.49%
- Growth Percent, Mean [55]: 101.65%
